Like-named read-outs stand apart in the source and are kept apart here.
Experiments:
[1] = tested on: Key Broadleaf Weed and Crop Species; experiment: Post-emergent Test II herbicidal activity (Table 5); assay type: in vivo; conditions: post-emergence, 336 h, post-emergent, 14 days after application; for pest or weed control at 70 g/ha: 70 g ai/ha; for pest or weed control at 140 g/ha: 140 g ai/ha
Method in brief: (§1)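 Test species were raised 7–21 d under greenhouse conditions until reaching the first or second true leaf, sprayed with formulated compound at 187 L/ha, and kept subirrigated to avoid wash-off. Fourteen days later, damage was rated visually on a 0–100% scale against untreated plants.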

[2] = tested on: Key Grass and Sedge Weeds as well as Grass Crops; experiment: Post-emergent Test II herbicidal activity (Table 6); assay type: in vivo; conditions: post-emergence, 336 h; for pest or weed control at 70 g/ha: application rate 70 g ai/ha; for pest or weed control at 140 g/ha: application rate 140 g ai/ha
Method in brief: as §1

[3] = ABUTH: velvetleaf (Abutilon theophrasti), read-out: Visual Growth Reduction (%) 14 Days After Application ABUTH
[4] = AMARE: redroot pigweed (Amaranthus retroflexus), read-out: Visual Growth Reduction (%) 14 Days After Application AMARE
[5] = BRSNN: oilseed-rape, canola (Brassica napus), read-out: Visual Growth Reduction (%) 14 Days After Application BRSNN
[6] = CHEAL: lambsquarters (Chenopodium album), read-out: Visual Growth Reduction (%) 14 Days After Application CHEAL
[7] = EPHHL: wild poinsettia (Euphorbia heterophylla), read-out: Visual Growth Reduction (%) 14 Days After Application EPHHL
[8] = HELAN: sunflower (Helianthus annuus), read-out: Visual Growth Reduction (%) 14 Days After Application HELAN
[9] = VIOTR: wild pansy (Viola tricolor), read-out: Visual Growth Reduction (%) 14 Days After Application VIOTR
[10] = Triticum aestivum, TRZSS (wheat), read-out: Visual Growth Reduction (%) 14 Days After Application, TRZSS
[11] = CYPES: yellow nutsedge (Cyperus esculentus), read-out: Visual Growth Reduction (%) 14 Days After Application, CYPES
[12] = DIGSA: crabgrass (Digitaria sanguinalis), read-out: Visual Growth Reduction (%) 14 Days After Application, DIGSA
[13] = ECHCG: barnyardgrass (Echinochloa crus-galli), read-out: Visual Growth Reduction (%) 14 Days After Application, ECHCG
[14] = ORYSA: rice (Oryza sativa), read-out: Visual Growth Reduction (%) 14 Days After Application, ORYSA
[15] = SETFA: giant foxtail (Setaria faberi), read-out: Visual Growth Reduction (%) 14 Days After Application, SETFA
[16] = SORVU: grain sorghum (Sorghum vulgare), read-out: Visual Growth Reduction (%) 14 Days After Application, SORVU
[17] = ZEAMX: maize, corn (Zea mays), read-out: Visual Growth Reduction (%) 14 Days After Application, ZEAMX

## C=Cc1c(C(=O)O)nc(-c2ccc(C#N)cc2)c(F)c1N [Compound 150]
[1]; [3]
  pest or weed control at 70 g/ha: 45 to 59%
  pest or weed control at 140 g/ha: 60 to 74%
[1]; [4]
  pest or weed control at 70 g/ha: 95 to 100%
  pest or weed control at 140 g/ha: 95 to 100%
[1]; [5]
  pest or weed control at 70 g/ha: 45 to 59%
  pest or weed control at 140 g/ha: 60 to 74%
[1]; [6]
  pest or weed control at 70 g/ha: 85 to 94%
  pest or weed control at 140 g/ha: 85 to 94%
[1]; [7]
  pest or weed control at 70 g/ha: 95 to 100%
  pest or weed control at 140 g/ha: 95 to 100%
[1]; [8]
  pest or weed control at 70 g/ha: 95 to 100%
  pest or weed control at 140 g/ha: 95 to 100%
[1]; [9]
  pest or weed control at 70 g/ha: 0 to 29%
  pest or weed control at 140 g/ha: 0 to 29%
[2]; [10]
  pest or weed control at 70 g/ha: 30 to 44%
  pest or weed control at 140 g/ha: 45 to 59%
[2]; [11]
  pest or weed control at 70 g/ha: 0 to 29%
  pest or weed control at 140 g/ha: 45 to 59%
[2]; [12]
  pest or weed control at 70 g/ha: 0 to 29%
  pest or weed control at 140 g/ha: 0 to 29%
[2]; [13]
  pest or weed control at 70 g/ha: 0 to 29%
  pest or weed control at 140 g/ha: 0 to 29%
[2]; [14]
  pest or weed control at 70 g/ha: 0 to 29%
  pest or weed control at 140 g/ha: 0 to 29%
[2]; [15]
  pest or weed control at 70 g/ha: 0 to 29%
  pest or weed control at 140 g/ha: 60 to 74%
[2]; [16]
  pest or weed control at 70 g/ha: 45 to 59%
  pest or weed control at 140 g/ha: 45 to 59%
[2]; [17]
  pest or weed control at 70 g/ha: 45 to 59%
  pest or weed control at 140 g/ha: 60 to 74%

## COC(=O)c1nc(-c2ccc(C#N)c(F)c2)c(C)c(N)c1Cl [Compound 155, Methyl 4-amino-3-chloro-6-(4-cyano-3-fluorophenyl)-5-methylpicolinate]
[1]; [3]
  pest or weed control at 70 g/ha: 0 to 29%
  pest or weed control at 140 g/ha: 0 to 29%
[1]; [4]
  pest or weed control at 70 g/ha: 0 to 29%
  pest or weed control at 140 g/ha: 0 to 29%
[1]; [5]
  pest or weed control at 70 g/ha: 45 to 59%
  pest or weed control at 140 g/ha: 60 to 74%
[1]; [6]
  pest or weed control at 70 g/ha: 85 to 94%
  pest or weed control at 140 g/ha: 95 to 100%
[1]; [7]
  pest or weed control at 70 g/ha: 0 to 29%
  pest or weed control at 140 g/ha: 0 to 29%
[1]; [8]
  pest or weed control at 70 g/ha: 85 to 94%
  pest or weed control at 140 g/ha: 85 to 94%
[1]; [9]
  pest or weed control at 70 g/ha: 0 to 29%
  pest or weed control at 140 g/ha: 0 to 29%
[2]; [10]
  pest or weed control at 70 g/ha: 0 to 29%
  pest or weed control at 140 g/ha: 0 to 29%
[2]; [11]
  pest or weed control at 70 g/ha: 0 to 29%
  pest or weed control at 140 g/ha: 0 to 29%
[2]; [12]
  pest or weed control at 70 g/ha: 0 to 29%
  pest or weed control at 140 g/ha: 0 to 29%
[2]; [13]
  pest or weed control at 70 g/ha: 0 to 29%
  pest or weed control at 140 g/ha: 0 to 29%
[2]; [14]
  pest or weed control at 70 g/ha: 0 to 29%
  pest or weed control at 140 g/ha: 0 to 29%
[2]; [15]
  pest or weed control at 70 g/ha: 0 to 29%
  pest or weed control at 140 g/ha: 0 to 29%
[2]; [16]
  pest or weed control at 70 g/ha: 0 to 29%
  pest or weed control at 140 g/ha: 0 to 29%
[2]; [17]
  pest or weed control at 70 g/ha: 0 to 29%
  pest or weed control at 140 g/ha: 0 to 29%

Reference: patent publication US9113629B2, “4-amino-6-(4-substituted-phenyl)-picolinates and 6-amino-2-(4-substituted-phenyl)-pyrimidine-4-carboxylates and their use as herbicides” (DOW AGROSCIENCES LLC, priority 2013, dated 2015)
